Assays:
[1] = Antiproliferative activity against PDGF-stimulated rat VSMC assessed as inhibition of [3H]thymidine incorporation into DNA after 20 hrs by liquid scintillation counting relative to control; type: functional
Brain [2] = test: Antioxidant activity in Wistar rat brain homogenate assessed as inhibition of Fe2+-induced TBARS formation by lipid peroxidation assay; type: functional, tissue-based
VSMC [3] = test: (§1) Antiproliferative activity against ADP-stimulated rat VSMC assessed as inhibition of [3H]thymidine incorporation into DNA after 20 hrs by liquid scintillation counting relative to control; type: functional
[4] = as §1; type: functional
[5] = Antiplatelet activity against rabbit platelet assessed as inhibition of platelet-activating factor-induced platelet aggregation at 20 uM preincubated 3 mins before PAF challenge by turbidimetric method relative to control; type: functional, cell-based, Oryctolagus cuniculus; design: Activity: scale not given: the % may be the effect or the level left; details: for IC50: Oryctolagus cuniculus, Platelet
VSMC [6] = test: (§2) Antiproliferative activity against 5-HT-stimulated rat VSMC assessed as inhibition of [3H]thymidine incorporation into DNA after 20 hrs by liquid scintillation counting relative to control; type: functional
[7] = as §2; type: functional
VSMC [8] = test: (§3) Antiproliferative activity against FCS-stimulated rat VSMC assessed as inhibition of [3H]thymidine incorporation into DNA after 20 hrs by liquid scintillation counting relative to control; type: functional
[9] = as §3; type: functional
[10] = Antiplatelet activity against rabbit platelet assessed as inhibition of arachidonic acid-induced platelet aggregation at 50 uM preincubated 3 mins before arachidonic acid challenge by turbidimetric method relative to control; type: functional, Oryctolagus cuniculus; design: scale not given: the % may be the effect or the level left
[11] = Antiplatelet activity against rabbit platelet assessed as inhibition of arachidonic acid-induced platelet aggregation at 300 uM preincubated 3 mins before arachidonic acid challenge by turbidimetric method relative to control; type: functional, Oryctolagus cuniculus; design: scale not given: the % may be the effect or the level left
[12] = Antiplatelet activity against rabbit platelet assessed as inhibition of platelet-activating factor-induced platelet aggregation at 300 uM preincubated 3 mins before PAF challenge by turbidimetric method relative to control; type: functional, Oryctolagus cuniculus; design: scale not given: the % may be the effect or the level left
[13] = Antiplatelet activity against rabbit platelet assessed as inhibition of collagen-induced platelet aggregation at 300 uM preincubated 3 mins before collagen challenge by turbidimetric method relative to control; type: functional, Oryctolagus cuniculus; design: scale not given: the % may be the effect or the level left
[14] = Antiplatelet activity against rabbit platelet assessed as inhibition of arachidonic acid-induced platelet aggregation at 100 uM preincubated 3 mins before arachidonic acid challenge by turbidimetric method relative to control; type: functional, Oryctolagus cuniculus; design: scale not given: the % may be the effect or the level left
[15] = Antiplatelet activity against rabbit platelet assessed as inhibition of platelet-activating factor-induced platelet aggregation at 50 uM preincubated 3 mins before PAF challenge by turbidimetric method relative to control; type: functional, Oryctolagus cuniculus; design: scale not given: the % may be the effect or the level left
[16] = Antiplatelet activity against rabbit platelet assessed as inhibition of platelet-activating factor-induced platelet aggregation at 100 uM preincubated 3 mins before PAF challenge by turbidimetric method relative to control; type: functional, Oryctolagus cuniculus; design: scale not given: the % may be the effect or the level left
[17] = Antiplatelet activity against rabbit platelet assessed as inhibition of arachidonic acid-induced platelet aggregation at 20 uM preincubated 3 mins before arachidonic acid challenge by turbidimetric method relative to control; type: functional, Oryctolagus cuniculus; design: scale not given: the % may be the effect or the level left
[18] = Antiplatelet activity against rabbit platelet assessed as inhibition of thrombin-induced platelet aggregation at 300 uM preincubated 3 mins before thrombin challenge by turbidimetric method relative to control; type: functional, Oryctolagus cuniculus; design: scale not given: the % may be the effect or the level left
[19] = Antiplatelet activity against rabbit platelet assessed as inhibition of thrombin-induced platelet aggregation at 50 uM preincubated 3 mins before thrombin challenge by turbidimetric method relative to control; type: functional, Oryctolagus cuniculus; design: scale not given: the % may be the effect or the level left
[20] = Antiplatelet activity against rabbit platelet assessed as inhibition of collagen-induced platelet aggregation at 50 uM preincubated 3 mins before collagen challenge by turbidimetric method relative to control; type: functional, Oryctolagus cuniculus; design: scale not given: the % may be the effect or the level left
Brain [21] = test: Antioxidant activity in Wistar rat brain homogenate assessed as inhibition of Fe2+-induced TBARS formation at 100 uM by lipid peroxidation assay; type: functional, tissue-based
[22] = Antiplatelet activity against rabbit platelet assessed as inhibition of thrombin-induced platelet aggregation at 100 uM preincubated 3 mins before thrombin challenge by turbidimetric method; type: functional, Oryctolagus cuniculus; design: scale not given: the % may be the effect or the level left
[23] = Antiplatelet activity against rabbit platelet assessed as inhibition of collagen-induced platelet aggregation at 100 uM preincubated 3 mins before collagen challenge by turbidimetric method relative to control; type: functional, Oryctolagus cuniculus; design: scale not given: the % may be the effect or the level left

| SMILES | IC50 [5] | inhibition (INH) [1] | Activity (Brain [2]) | inhibition (INH) [4] | inhibition (INH) [7] | inhibition (INH) [9] | Activity [10] | Activity [15] | further results |
| --- | --- | --- | --- | --- | --- | --- | --- | --- | --- |
| CC(C)=CCc1cc2c(cc1O)O/C(=C\c1ccc(O)c(O)c1)C2=O [BROUSSOAURONE A] | 1200 nM |  | Dose-dependent effect |  |  |  |  |  |  |
| CC(C)=CCc1c(-c2ccc(O)cc2O)oc2c(CC=C(C)C)c(O)cc(O)c2c1=O [KUWANON C] |  |  |  |  |  |  | 60.2% | 67.6% | Activity [11]: 0%; Activity [12]: 0%; Activity [5]: 78.8%; Activity [13]: 5.5%; Activity [14]: 5.9%; Activity [16]: 26.9%; Activity [17]: 83.9%; Activity [18]: 54.8% |
| CC(=O)Oc1ccccc1C(=O)O [ASPIRIN] |  |  |  |  |  |  | 0% | 90.5% | Activity [19]: 91.9%; Activity [20]: 85.4% |
| CC(C)=CCc1c(-c2ccc(O)cc2O)oc2c3c(cc(O)c2c1=O)OC(C)(C)C=C3 [MORUSIN] |  |  |  |  |  |  | 74.2% | 62.5% | Activity [22]: 81.8%; Activity [5]: 81.3%; Activity [23]: 5.3%; Activity [14]: 0%; Activity [16]: 0%; Activity [17]: 82.8% |

Second part, led by results:

| IC50 [5] | SMILES | inhibition (INH) [1] | Activity (Brain [2]) | inhibition (INH) [4] | inhibition (INH) [7] | inhibition (INH) [9] | Activity [10] | Activity [15] | further results |
| --- | --- | --- | --- | --- | --- | --- | --- | --- | --- |
| 2700 nM | CC(C)=CCc1cc(-c2oc3c(CC=C(C)C)c(O)cc(O)c3c(=O)c2O)ccc1O [BROUSSOFLAVONOL F] | 127% | Dose-dependent effect | 7.8% | 0% | 0% |  |  | Activity (VSMC [3]): Dose-dependent effect; Activity (VSMC [6]): Dose-dependent effect; Activity (VSMC [8]): Dose-dependent effect |
| 1000 nM | CC(C)=CCc1c(-c2oc3c(CC=C(C)C)c(O)cc(O)c3c(=O)c2O)cc(O)c(O)c1CC=C(C)C [BROUSSOFLAVONOL E] | 127% | Dose-dependent effect | 0.4% | 0% | 0% |  |  | Activity (VSMC [3]): Dose-dependent effect; Activity (VSMC [6]): Dose-dependent effect; Activity (VSMC [8]): Dose-dependent effect |
| 14500 nM | Cc1cc(C(C)(C)C)c(O)c(C(C)(C)C)c1 [BUTYLATED HYDROXYTOLUENE] |  |  |  |  |  |  |  | inhibition (Brain [21]): 91.3% |
| 2100 nM | CC(C)=CCc1c([C@@H]2CCc3ccc(O)cc3O2)cc2c(c1O)OC(C)(C)C(O)C2O (stereo not given in full) [BROUSSOFLAVAN A] | 258% | Dose-dependent effect | 67% | 19% | 39.5% |  |  |  |
